Article PMC12621043, “Un-LOK-ing a New Approach for Conformational Selective Targeting of STK10 (LOK)” (ACS Medicinal Chemistry Letters, 2025)

Legend:
Assay in all cases: DSF Tm panel
Type in all cases: binding
Conditions in all cases: 10 μM compound
PLK4A = biological target: T1, PLK4A (Homo sapiens, UniProt O00444)
T1 construct: purchased in-house DSF kinase panel (SGC-style construct names; the trailing letter is the construct ID)
T1 sequence (O00444 2-275): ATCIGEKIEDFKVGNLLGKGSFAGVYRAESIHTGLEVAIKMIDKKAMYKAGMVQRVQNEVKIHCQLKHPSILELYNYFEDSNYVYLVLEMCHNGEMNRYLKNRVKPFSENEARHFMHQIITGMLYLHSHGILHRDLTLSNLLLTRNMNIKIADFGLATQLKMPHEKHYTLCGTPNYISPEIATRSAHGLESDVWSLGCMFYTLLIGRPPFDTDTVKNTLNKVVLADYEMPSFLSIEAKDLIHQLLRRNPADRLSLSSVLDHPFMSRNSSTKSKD

CAMK4A = biological target: T2, CAMK4A (Homo sapiens, UniProt Q16566)
T2 construct: purchased in-house DSF kinase panel (SGC-style construct names; the trailing letter is the construct ID)
T2 sequence (Q16566 1-473): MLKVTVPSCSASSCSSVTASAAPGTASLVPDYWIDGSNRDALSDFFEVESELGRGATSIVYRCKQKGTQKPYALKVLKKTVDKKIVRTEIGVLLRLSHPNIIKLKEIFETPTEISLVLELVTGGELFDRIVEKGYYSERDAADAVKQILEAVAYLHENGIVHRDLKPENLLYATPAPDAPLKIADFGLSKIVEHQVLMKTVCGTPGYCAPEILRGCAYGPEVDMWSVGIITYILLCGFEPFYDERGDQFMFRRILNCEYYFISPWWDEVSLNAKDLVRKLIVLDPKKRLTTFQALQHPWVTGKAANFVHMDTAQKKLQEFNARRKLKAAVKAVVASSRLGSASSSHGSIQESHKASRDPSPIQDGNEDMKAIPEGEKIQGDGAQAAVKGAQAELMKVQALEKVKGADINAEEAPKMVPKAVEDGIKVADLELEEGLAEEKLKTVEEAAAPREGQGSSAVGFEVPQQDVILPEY

GAKA = biological target: T3, GAKA (Homo sapiens, UniProt O14976)
T3 construct: purchased in-house DSF kinase panel (SGC-style construct names; the trailing letter is the construct ID)
T3 sequence (O14976 14-351): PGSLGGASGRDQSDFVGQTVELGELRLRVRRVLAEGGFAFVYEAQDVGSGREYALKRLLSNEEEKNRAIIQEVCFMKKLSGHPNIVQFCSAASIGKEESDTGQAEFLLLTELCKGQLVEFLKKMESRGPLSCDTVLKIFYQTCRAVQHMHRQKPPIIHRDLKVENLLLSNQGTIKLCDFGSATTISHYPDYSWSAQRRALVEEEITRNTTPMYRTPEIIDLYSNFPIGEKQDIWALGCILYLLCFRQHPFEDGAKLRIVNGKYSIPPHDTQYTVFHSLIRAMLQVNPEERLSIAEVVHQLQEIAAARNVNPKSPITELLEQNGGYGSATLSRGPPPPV

PAK1A = biological target: T4, PAK1A (Homo sapiens, UniProt Q13153)
T4 construct: purchased in-house DSF kinase panel (SGC-style construct names; the trailing letter is the construct ID)

MAP2K1A = biological target: T5, MAP2K1A (Homo sapiens, UniProt Q02750)
T5 construct: purchased in-house DSF kinase panel (SGC-style construct names; the trailing letter is the construct ID)

BMPR2A = biological target: T6, BMPR2A (Homo sapiens, UniProt Q13873)
T6 construct: purchased in-house DSF kinase panel (SGC-style construct names; the trailing letter is the construct ID)
T6 sequence (Q13873 27-1038): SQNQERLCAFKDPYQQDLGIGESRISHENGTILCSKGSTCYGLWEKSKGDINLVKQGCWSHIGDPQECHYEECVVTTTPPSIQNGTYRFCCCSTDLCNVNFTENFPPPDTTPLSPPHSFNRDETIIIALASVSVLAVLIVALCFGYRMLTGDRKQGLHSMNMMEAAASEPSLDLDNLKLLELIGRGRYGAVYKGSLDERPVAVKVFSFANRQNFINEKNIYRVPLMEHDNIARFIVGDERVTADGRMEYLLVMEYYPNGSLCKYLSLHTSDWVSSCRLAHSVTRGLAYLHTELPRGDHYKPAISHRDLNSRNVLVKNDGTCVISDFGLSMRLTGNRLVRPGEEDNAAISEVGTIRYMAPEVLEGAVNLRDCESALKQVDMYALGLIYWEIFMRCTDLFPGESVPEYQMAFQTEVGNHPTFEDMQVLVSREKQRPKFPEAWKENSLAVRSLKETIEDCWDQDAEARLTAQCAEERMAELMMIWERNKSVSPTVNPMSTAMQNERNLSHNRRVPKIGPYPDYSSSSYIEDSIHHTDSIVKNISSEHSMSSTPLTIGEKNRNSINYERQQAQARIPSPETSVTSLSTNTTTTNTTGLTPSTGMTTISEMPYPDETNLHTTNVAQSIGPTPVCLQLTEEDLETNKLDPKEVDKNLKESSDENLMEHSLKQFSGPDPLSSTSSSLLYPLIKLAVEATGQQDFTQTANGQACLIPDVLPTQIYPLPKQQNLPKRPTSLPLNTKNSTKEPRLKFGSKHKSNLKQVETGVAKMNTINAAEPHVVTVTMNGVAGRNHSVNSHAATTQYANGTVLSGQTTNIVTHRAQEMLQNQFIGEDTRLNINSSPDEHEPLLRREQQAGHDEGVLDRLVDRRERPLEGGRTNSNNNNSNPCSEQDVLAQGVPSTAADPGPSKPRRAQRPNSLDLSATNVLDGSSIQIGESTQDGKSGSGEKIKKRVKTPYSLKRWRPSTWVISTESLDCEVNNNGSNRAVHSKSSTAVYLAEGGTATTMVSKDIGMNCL

T5 sequence (Q02750 68-361): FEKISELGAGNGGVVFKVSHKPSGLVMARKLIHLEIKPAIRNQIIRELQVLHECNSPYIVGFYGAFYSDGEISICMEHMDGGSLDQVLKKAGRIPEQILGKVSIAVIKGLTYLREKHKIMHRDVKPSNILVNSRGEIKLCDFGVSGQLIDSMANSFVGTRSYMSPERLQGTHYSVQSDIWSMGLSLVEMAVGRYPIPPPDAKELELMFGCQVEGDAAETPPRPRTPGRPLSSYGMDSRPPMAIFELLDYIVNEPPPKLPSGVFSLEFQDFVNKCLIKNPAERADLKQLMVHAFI
T4 sequence (Q13153 249-545): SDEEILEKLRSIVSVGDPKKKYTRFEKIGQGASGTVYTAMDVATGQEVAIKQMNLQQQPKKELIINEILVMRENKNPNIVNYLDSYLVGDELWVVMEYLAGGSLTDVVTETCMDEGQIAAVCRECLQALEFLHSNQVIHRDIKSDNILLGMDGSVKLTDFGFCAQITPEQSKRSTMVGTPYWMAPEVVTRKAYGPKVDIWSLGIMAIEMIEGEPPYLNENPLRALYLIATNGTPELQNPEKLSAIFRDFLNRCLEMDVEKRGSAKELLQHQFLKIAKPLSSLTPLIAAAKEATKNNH

| SMILES | ΔTm at 10 µM (PLK4A) [°C] | ΔTm at 10 µM (CAMK4A) [°C] | ΔTm at 10 µM (GAKA) [°C] | ΔTm at 10 µM (PAK1A) [°C] | ΔTm at 10 µM (MAP2K1A) [°C] | ΔTm at 10 µM (BMPR2A) [°C] |
| --- | --- | --- | --- | --- | --- | --- |
| O=C(NCc1ccccc1Cl)Nc1ccc2cc1OCCOCCNc1ccn3ncc-2c3n1 [compound 17] | 3.9 | 0.6 | 4.8 | 0.6 | -0.2 | 2.6 |
| Cc1cc(Br)ccc1CNC(=O)Nc1ccc2cc1OCCOCCNc1ccn3ncc-2c3n1 [compound 24] | 2.3 | 0.8 | 5.9 | 1.1 | 0.6 | 2.3 |
| CN1CCN(C(=O)Nc2ccc3cc2OCCOCCNc2ccn4ncc-3c4n2)CC1 [compound 35] | 3 | 0 | 3.8 | -0.1 | -0.2 | 3.5 |
| O=C(NCc1ccccc1C(F)(F)F)Nc1ccc2cc1OCCOCCNc1ccn3ncc-2c3n1 [compound 27] | 3.9 | 1.2 | 5.4 | 1.5 | 0.7 | 2.8 |
| COc1cc(CNC(=O)Nc2ccc3cc2OCCOCCNc2ccn4ncc-3c4n2)ccc1F [compound 33] | 5.5 | 1 | 6.2 | 0.5 | 0.7 | 3.7 |
| COc1ccc(CNC(=O)Nc2ccc3cc2OCCOCCNc2ccn4ncc-3c4n2)cc1F [compound 32] | 4.6 | 0.9 | 6 | 1 | 0.7 | 4.4 |
| Cc1ccc(F)cc1CNC(=O)Nc1ccc2cc1OCCOCCNc1ccn3ncc-2c3n1 [compound 26] | 3.3 | 0.8 | 6 | 0.7 | 0.3 | 3.4 |
| COc1ccccc1CNC(=O)Nc1ccc2cc1OCCOCCNc1ccn3ncc-2c3n1 [compound 29] | 3 | 0.6 | 4.5 | 0.1 | 0.6 | 4 |
| COc1ccc(CNC(=O)Nc2ccc3cc2OCCOCCNc2ccn4ncc-3c4n2)cc1 [compound 31] | 4.9 | 1.1 | 6.2 | 0.5 | 0.6 | 4.6 |
| O=C(NCc1ccc(C(F)(F)F)cc1)Nc1ccc2cc1OCCOCCNc1ccn3ncc-2c3n1 [compound 28] | 3.3 | 1 | 5.1 | 1.8 | 1 | 3.2 |
| C[C@H](NC(=O)Nc1ccc2cc1OCCOCCNc1ccn3ncc-2c3n1)c1ccccc1 [compound 34] | 4.7 | 0.6 | 5.7 | 0.3 | 0.7 | 5.1 |

Other lines, results leading:

| ΔTm at 10 µM (PLK4A) [°C] | ΔTm at 10 µM (CAMK4A) [°C] | ΔTm at 10 µM (GAKA) [°C] | ΔTm at 10 µM (PAK1A) [°C] | ΔTm at 10 µM (MAP2K1A) [°C] | ΔTm at 10 µM (BMPR2A) [°C] | SMILES |
| --- | --- | --- | --- | --- | --- | --- |
| 2.8 | 0.4 | 2.4 | 2.5 | 0.8 | 1.1 | O=C(NCc1ccc(Cl)cc1Cl)Nc1ccc2cc1OCCOCCNc1ccn3ncc-2c3n1 [compound 20] |
| 2.6 | 0.9 | 3.9 | 1 | 1.2 | 1.8 | O=C(NCc1ccc(Cl)cc1F)Nc1ccc2cc1OCCOCCNc1ccn3ncc-2c3n1 [compound 21] |
| 2.8 | 0.6 | 2.8 | 2 | 0.6 | 1.5 | Cc1cc(Cl)ccc1CNC(=O)Nc1ccc2cc1OCCOCCNc1ccn3ncc-2c3n1 [compound 23] |
| 2.5 | 1 | 4.4 | 0.9 | 0.1 | 2.3 | O=C(NCc1ccc(Cl)cc1)Nc1ccc2cc1OCCOCCNc1ccn3ncc-2c3n1 [compound 19] |
| 3.2 | 1.3 | 4.1 | 0.7 | 0.2 | 2.9 | O=C(NCc1cccc(Cl)c1)Nc1ccc2cc1OCCOCCNc1ccn3ncc-2c3n1 [compound 18] |
| 4.1 | 0.5 | 6.1 | 0.1 | -0.1 | 4.4 | O=C(NCc1ccccc1)Nc1ccc2cc1OCCOCCNc1ccn3ncc-2c3n1 [compound 16] |
| 3.5 | 0.8 | 4.7 | 0.2 | 0.6 | 4.3 | COc1cccc(CNC(=O)Nc2ccc3cc2OCCOCCNc2ccn4ncc-3c4n2)c1 [compound 30] |
